Data taken from patent US9150598B2, “Masking apertures enabling automation and solution exchange in sessile bilayers” (The Regents of the University of California, priority 2011, dated 2015).

Experiments:
[1] = target: T1, TRPM8 (Rattus norvegicus, UniProt Q8R455); assay: Ensemble TRPM8 currents in droplet lipid bilayer with solution perfusion (drug potency); assay type: biochemical; conditions: +100 mV
T1 construct: 6x histidine tag (N); made in house; host or cells: E. coli
Description: (§1) The apparatus was prepared for use by filling the outer wells and lower channel with 200 μL of an aqueous solution containing liposomes (described below) (FIG. 1B). The 200 μm aperture in the hydrophobic Delrin film is sufficiently small to prevent flow of aqueous solution through it. 80 μL of n-decane was then added to the center well, contacting the lower aqueous solution through the Delrin aperture (FIG. 1B). […] The lower aqueous solution could be exchanged by adding and withdrawing fluids through the outer wells (FIG. 1B).
2 μL of this solution was used for the sessile droplet and 200 μL of this solution (or a similarly prepared liposome solution not containing TRPM8) was added to the lower aqueous channel.
A Ag/AgCl counter electrode placed in the one of the outer wells and the Ag/AgCl pin electrode were connected to an Axopatch 200B amplifier (Axon Instruments), which was used to apply a transmembrane potential and measure the resultant ionic current (FIG. 1B). […] Bilayer capacitance was measured throughout to ensure that changes in measured current were due to changes in channel conductance and not changes in bilayer size or stability. […]
The resultant current at each concentration was measured over 10 minutes before the concentration was increased (FIG. 7). […]
The average current at each concentration was determined and normalized by the maximum value measured. […]

[2] = target: T1, TRPM8; assay: Single-channel TRPM8 recordings in droplet lipid bilayer (open probability); assay type: biochemical; conditions: 20° C., +100 mV, 2.5 μM PI(4,5)P2, n=9
Description: as §1
A TRPM8 construct with 6× histidine tag at the amino terminus was transformed into E. coli, expressed, and purified. […] The resulting proteoliposomes were aliquoted and stored at −80° C. […]
A Ag/AgCl counter electrode placed in the one of the outer wells and the Ag/AgCl pin electrode were connected to an Axopatch 200B amplifier (Axon Instruments), which was used to apply a transmembrane potential and measure the resultant ionic current (FIG. 1B). […] Bilayer capacitance was measured throughout to ensure that changes in measured current were due to changes in channel conductance and not changes in bilayer size or stability.
Temperature was measured using a 10 kΩ n-type thermistor (Newark) placed in the solution of one of the outer wells. […]
Ensembles of TRPM8 were measured using a 1:1000 protein:lipid ratio.

[3] = Control: DPhPC droplet bilayers made without hERG membrane preparations; conditions: identical amounts of drug added
[4] = target: T1, TRPM8; assay: Ensemble TRPM8 currents while varying PI(4,5)P2 concentration; assay type: biochemical; conditions: 250 μM menthol, +100 mV, 20° C.
Description: Data were filtered at 200 Hz. Measurements began in the absence of PI(4,5)P2. After ten minutes at each concentration, the concentration of PI(4,5)P2 was then increased by 0.8 μM with the addition of […] PI(4,5)P2 stock solution (100 μM) to the 200 μL lower aqueous solution. With no PI(4,5)P2 in the measurement solution, there was no observed channel activity. As the concentration of PI(4,5)P2 increased, frequency of channel opening increased. […] Throughout experiments, temperature was kept constant at 20° C.
During measurement, solutions were added to the fluid inlet well and withdrawn from the fluid outlet well (FIG. 6D).
Bilayers were formed with this chip at very high yield and with highly consistent diameters (163±14 μm (n=55), measured capacitively).^17 Following bilayer formation, a potential of 0 mV was applied followed by voltage steps from −100 mV to +100 mV, in 20 mV increments for 10 seconds each, and the resulting current measured. We measured no TRPM8 currents in the absence of the signaling phospholipid PI(4,5)P2, in agreement with previous work (B. Liu and F. Qin, J. Neurosci., 2005, 25, 1674-1681; T. Rohács, C. M. B. Lopes, I. Michailidis and D. E. Logothetis, Nat. Neurosci., 2005, 8, 626-634). […] With PI(4,5)P2, constant TRPM8 currents were almost always observed immediately upon bilayer formation.

T1 sequence (Q8R455 whole entry, the tested form may be a part): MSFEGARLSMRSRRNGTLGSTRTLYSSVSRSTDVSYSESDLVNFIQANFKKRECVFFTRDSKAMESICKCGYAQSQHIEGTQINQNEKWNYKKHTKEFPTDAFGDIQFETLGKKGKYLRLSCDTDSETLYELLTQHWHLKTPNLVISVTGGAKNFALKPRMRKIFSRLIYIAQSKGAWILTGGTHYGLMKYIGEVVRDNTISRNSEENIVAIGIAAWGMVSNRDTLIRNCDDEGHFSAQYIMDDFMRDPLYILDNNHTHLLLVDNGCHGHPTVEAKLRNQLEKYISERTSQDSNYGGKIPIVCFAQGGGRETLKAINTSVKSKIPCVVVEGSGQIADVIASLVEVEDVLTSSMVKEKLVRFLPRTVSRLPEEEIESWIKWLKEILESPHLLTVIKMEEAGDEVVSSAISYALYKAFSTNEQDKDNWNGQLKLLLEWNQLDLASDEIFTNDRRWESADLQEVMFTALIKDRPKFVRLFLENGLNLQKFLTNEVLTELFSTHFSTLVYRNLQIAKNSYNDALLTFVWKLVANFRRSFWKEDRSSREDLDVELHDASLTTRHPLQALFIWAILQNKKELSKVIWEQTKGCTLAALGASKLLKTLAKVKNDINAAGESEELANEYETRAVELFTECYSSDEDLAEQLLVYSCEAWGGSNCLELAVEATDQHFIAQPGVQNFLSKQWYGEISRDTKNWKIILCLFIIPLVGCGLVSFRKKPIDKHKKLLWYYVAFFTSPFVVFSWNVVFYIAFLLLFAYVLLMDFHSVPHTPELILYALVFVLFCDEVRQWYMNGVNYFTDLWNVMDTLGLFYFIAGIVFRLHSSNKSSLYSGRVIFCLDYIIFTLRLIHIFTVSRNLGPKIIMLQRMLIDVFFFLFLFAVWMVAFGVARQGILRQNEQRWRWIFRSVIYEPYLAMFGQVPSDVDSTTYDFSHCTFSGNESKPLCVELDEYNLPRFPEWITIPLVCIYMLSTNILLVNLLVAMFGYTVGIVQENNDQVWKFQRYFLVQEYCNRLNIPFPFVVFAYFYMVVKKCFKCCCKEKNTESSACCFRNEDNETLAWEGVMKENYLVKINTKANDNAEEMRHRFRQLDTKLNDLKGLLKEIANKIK

For `CC1CCC(C(C)C)C(O)C1` (stereo not drawn) [menthol], the EC50 ([1]; protein:lipid 1:1000, 2.5 μM PI(4,5)P2, n=3) was 112 µM, the “Popen (open probability) of TRPM8” value ([2]; 50 μM menthol) was 0.639±0.029 and the “Popen (open probability) of TRPM8” value ([2]; 500 μM menthol) was 0.967±0.013.
In the case of `COc1ccc(CCN2CCC(Nc3nc4ccccc4n3Cc3ccc(F)cc3)CC2)cc1` [astemizole], the “Effect on bilayers without hERG” value [3] is reported as “no change in membrane conductance observed”.
For “phosphatidylinositol-4,5-bisphosphate [PI(4,5)P2]”, the “PI(4,5)P2 concentration at which maximum current did not increase further” value [4] was 2.4 µM.
Work on `NCCOB(c1ccccc1)c1ccccc1` [2-APB, 2-aminoethoxydiphenyl borate] yielded an IC50 ([1]; read-out: IC50 of 2-APB on menthol-evoked TRPM8 currents, in 500 μM menthol, protein:lipid 1:1000, n=3) of 4.9 µM.
